In ChEMBL document CHEMBL4602732, “Optimizing Pyrazolopyrimidine Inhibitors of Calcium Dependent Protein Kinase 1 for Treatment of Acute and Chronic Toxoplasmosis” (J Med Chem, 2020):

Key:
[1] = Half life in human liver microsomes at 10 uM preincubated for 10 mins followed by NADPH addition by LC-MS/MS analysis; format: ADME, Microsome; conditions: for half-life at 10 µM: liver microsomes; for t1/2: microsomes, 10 µM
[2] = Half life in mouse liver microsomes at 10 uM preincubated for 10 mins followed by NADPH addition by LC-MS/MS analysis; format: ADME, Microsome; conditions: microsomes, 10 µM
[3] = Inhibition of Toxoplasma gondii full-length wild-type C-terminal His-tagged CDPK1 expressed in Escherichia coli BL21(DE3)V2RpAcYc-LIC+LamP using syntide-2 peptide as substrate incubated for 20 to 40 mins by ELISA
Toxoplasma gondii [4] = assay: Antiparasitic activity against 2F clone of type 1 Toxoplasma gondii RH tachyzoites expressing beta-galactosidase infected in HFF assessed as reduction in parasite growth measured after 72 hrs by chlorophenol Red-beta-D-galactopyranoside substrate based assay; format: functional, organism-based
[5] = Cytotoxicity against human CMEC/D3 cells assessed as cell growth at 20 uM measured after 72 hrs by cellTiter 96 AQueous non-radioactive cell proliferation assay relative to control; format: cell-based, hCMEC/D3; conditions: read-out: Activity
[6] = Cytotoxicity against HFF monolayers assessed as cell growth measured after 72 hrs by luciferase reporter gene assay relative to control; format: cell-based; conditions: human, read-out: Activity
[7] = Cytotoxicity against human SH-SY5Y cells assessed as cell growth at 20 uM measured after 72 hrs by cellTiter 96 AQueous non-radioactive cell proliferation assay relative to control; format: cell-based; conditions: read-out: Activity
[8] = target: Proto-oncogene tyrosine-protein kinase Src (Homo sapiens, UniProt P12931); assay: Inhibition of human Src expressed in Escherichia coli BL21 using Abltide peptide as substrate incubated for 20 to 40 mins by ELISA
Toxoplasma gondii [9] = assay: Antiparasitic activity against Toxoplasma gondii type III CTG tachyzoites infected in HFF assessed as reduction in parasite growth; format: functional, organism-based
[10] = Cmax in CD1 mouse at 3 mg/kg, iv or 10 mg/kg, po administered via gavage by LC-MS/MS analysis; format: ADME, organism-based; conditions: in vivo
[11] = Inhibition of Toxoplasma gondii full-length C-terminal His-tagged CDPK1 G128M mutant expressed in Escherichia coli BL21(DE3)V2RpAcYc-LIC+LamP using syntide-2 peptide as substrate incubated for 20 to 40 mins by ELISA
[12] = Clearance in human hepatocytes assessed per million cells at 1 uM by LC-MS/MS analysis; format: ADME, cell-based, Hepatocyte
Aldehyde oxidase = target: T1, Aldehyde oxidase (Homo sapiens, UniProt Q06278); assay: Drug metabolism in human liver S9 fraction assessed as aldehyde oxidase-mediated drug metabolism by measuring rate of parent compound decay at 1 uM measured after 90 mins by LC-MS/MS analysis; format: ADME, subcellular
T1 sequence (Q06278 whole entry): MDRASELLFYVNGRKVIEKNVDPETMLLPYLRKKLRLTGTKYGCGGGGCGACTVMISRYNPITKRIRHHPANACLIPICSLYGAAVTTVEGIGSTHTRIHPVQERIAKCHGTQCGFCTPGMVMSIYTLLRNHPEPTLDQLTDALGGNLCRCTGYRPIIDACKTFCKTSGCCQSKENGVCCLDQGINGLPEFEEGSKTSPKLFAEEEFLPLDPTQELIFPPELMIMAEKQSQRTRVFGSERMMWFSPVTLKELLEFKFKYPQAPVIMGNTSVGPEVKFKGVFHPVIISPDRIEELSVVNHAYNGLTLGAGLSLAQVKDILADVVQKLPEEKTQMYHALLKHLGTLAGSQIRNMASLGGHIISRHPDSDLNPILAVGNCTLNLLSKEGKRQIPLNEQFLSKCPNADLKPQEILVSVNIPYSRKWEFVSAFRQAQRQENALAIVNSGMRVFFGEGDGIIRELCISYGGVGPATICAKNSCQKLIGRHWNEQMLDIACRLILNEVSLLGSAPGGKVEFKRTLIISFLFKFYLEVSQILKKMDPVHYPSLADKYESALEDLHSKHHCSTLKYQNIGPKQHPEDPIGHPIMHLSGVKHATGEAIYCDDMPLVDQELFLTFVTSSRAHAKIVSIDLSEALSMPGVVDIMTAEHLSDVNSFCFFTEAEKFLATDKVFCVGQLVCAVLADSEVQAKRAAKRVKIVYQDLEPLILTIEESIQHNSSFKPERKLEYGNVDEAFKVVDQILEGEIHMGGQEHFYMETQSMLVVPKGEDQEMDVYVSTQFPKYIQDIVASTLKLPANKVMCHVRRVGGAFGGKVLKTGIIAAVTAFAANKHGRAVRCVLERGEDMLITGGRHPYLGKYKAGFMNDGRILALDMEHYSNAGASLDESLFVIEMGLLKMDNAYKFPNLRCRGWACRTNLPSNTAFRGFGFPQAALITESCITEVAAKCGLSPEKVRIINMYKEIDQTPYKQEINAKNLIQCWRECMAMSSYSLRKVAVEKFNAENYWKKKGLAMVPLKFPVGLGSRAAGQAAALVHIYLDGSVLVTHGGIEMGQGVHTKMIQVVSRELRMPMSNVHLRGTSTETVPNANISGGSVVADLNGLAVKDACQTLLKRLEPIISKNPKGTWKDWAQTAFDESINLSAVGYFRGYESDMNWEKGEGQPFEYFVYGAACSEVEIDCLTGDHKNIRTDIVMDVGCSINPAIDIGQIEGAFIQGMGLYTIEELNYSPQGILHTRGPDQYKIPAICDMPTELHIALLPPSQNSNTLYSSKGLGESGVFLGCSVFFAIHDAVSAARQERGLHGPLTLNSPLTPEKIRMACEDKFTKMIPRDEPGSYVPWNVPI

[13] = AUC in CD1 mouse at 3 mg/kg, iv or 10 mg/kg, po administered via gavage by LC-MS/MS analysis; format: ADME, organism-based; conditions: in vivo
[14] = Cytotoxicity against human Caco2 cells assessed as cell growth at 20 uM measured after 72 hrs by cellTiter 96 AQueous non-radioactive cell proliferation assay relative to control; format: cell-based, Caco-2; conditions: read-out: Activity
[15] = Protein binding in mouse plasma assessed as unbound fraction at 2 uM measured after 4 hrs by LC-MS/MS analysis; format: ADME, cell-free
[16] = Protein binding in mouse brain assessed as unbound fraction; format: ADME, tissue-based
[17] = Ratio of drug level in central nervous system to plasma in CD1 mouse at 10 mg/kg, po administered via gavage measured after 8 hrs by LC-MS/MS analysis; format: ADME, organism-based, CNS/Plasma; conditions: central nervous system and plasma
[18] = Kinetic solubility of the compound in pH 7.4 phosphate buffer measured after 24 hrs by UV-HPLC analysis; format: physicochemical; conditions: pH 7.4, 24 h
MDR1 = assay: Efflux ratio of apparent permeability across basolateral to apical side over apical to basolateral side in MDCK2-MDR1 cells at 2 uM measured after 150 mins by LC-MS/MS analysis; format: ADME, cell-based, Canis lupus familiaris; conditions: dog, MDCK-MDR1
[19] = Oral bioavailability in CD1 mouse at 10 mg/kg administered via gavage by LC-MS/MS analysis; format: ADME, organism-based; conditions: in vivo
[20] = Apparent permeability across apical to basolateral side in MDCK2-MDR1 cells at 2 uM measured after 150 mins by LC-MS/MS analysis; format: ADME, cell-based, Canis lupus familiaris; conditions: dog, mdck-mdr1, […]
[21] = target: Voltage-gated inwardly rectifying potassium channel KCNH2 (Homo sapiens, UniProt Q12809); assay: Inhibition of human ERG expressed in CHOK1 cells by patch-clamp electrophysiology assay; format: cell-based, CHO-K1
[22] = system: Src (human) versus Toxoplasma gondii CDPK1; assay: Selectivity ratio of IC50 for inhibition of human Src expressed in Escherichia coli BL21 to IC50 for inhibition of Toxoplasma gondii full-length wild-type C-terminal His-tagged CDPK1 expressed in Escherichia coli BL21(DE3)V2RpAcYc-LIC+LamP; format: toxicity; conditions: read-out: Ratio IC50
[23] = Half life in CD1 mouse at 3 mg/kg, iv or 10 mg/kg, po administered via gavage by LC-MS/MS analysis; format: ADME, organism-based; conditions: in vivo
[24] = Cytotoxicity against human HepG2 cells assessed as cell growth at 20 uM measured after 72 hrs by cellTiter 96 AQueous non-radioactive cell proliferation assay relative to control; format: cell-based; conditions: read-out: Activity
[25] = Intrinsic clearance in human liver microsomes at 10 uM preincubated for 10 mins followed by NADPH addition by LC-MS/MS analysis; format: ADME, Microsome; conditions: read-out: CLH
[26] = Cytotoxicity against MDCK cells assessed as cell growth at 20 uM measured after 72 hrs by cellTiter 96 AQueous non-radioactive cell proliferation assay relative to control; format: cell-based, Canis lupus familiaris; conditions: dog, read-out: Activity
Toxoplasma gondii [27] = assay: Antiparasitic activity against type 2 Toxoplasma gondii ME49 tachyzoites infected in HFF assessed as reduction in parasite growth; format: functional, organism-based
LCK = LCK (Homo sapiens, UniProt P06239); assay: Inhibition of wild-type human partial length LCK (R207 to P509 residues) expressed in bacterial expression system at 10 uM by Kinomescan method relative to control
Chain of LCK (P06239 whole entry, the tested form may be a part): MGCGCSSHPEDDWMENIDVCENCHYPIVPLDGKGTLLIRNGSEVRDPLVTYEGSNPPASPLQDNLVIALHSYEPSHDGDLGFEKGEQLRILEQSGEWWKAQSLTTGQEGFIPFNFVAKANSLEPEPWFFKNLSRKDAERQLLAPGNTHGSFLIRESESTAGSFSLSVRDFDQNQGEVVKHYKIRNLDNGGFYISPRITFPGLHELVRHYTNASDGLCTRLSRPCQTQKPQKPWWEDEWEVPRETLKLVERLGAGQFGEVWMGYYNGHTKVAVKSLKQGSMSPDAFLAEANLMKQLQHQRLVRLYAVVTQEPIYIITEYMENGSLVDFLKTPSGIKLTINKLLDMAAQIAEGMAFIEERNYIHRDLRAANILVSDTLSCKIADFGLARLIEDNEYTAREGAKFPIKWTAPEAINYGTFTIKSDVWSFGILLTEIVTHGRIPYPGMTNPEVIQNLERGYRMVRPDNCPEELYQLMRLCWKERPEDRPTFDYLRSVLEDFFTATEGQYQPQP

Chain of Voltage-gated inwardly rectifying potassium channel KCNH2 (Q12809 whole entry): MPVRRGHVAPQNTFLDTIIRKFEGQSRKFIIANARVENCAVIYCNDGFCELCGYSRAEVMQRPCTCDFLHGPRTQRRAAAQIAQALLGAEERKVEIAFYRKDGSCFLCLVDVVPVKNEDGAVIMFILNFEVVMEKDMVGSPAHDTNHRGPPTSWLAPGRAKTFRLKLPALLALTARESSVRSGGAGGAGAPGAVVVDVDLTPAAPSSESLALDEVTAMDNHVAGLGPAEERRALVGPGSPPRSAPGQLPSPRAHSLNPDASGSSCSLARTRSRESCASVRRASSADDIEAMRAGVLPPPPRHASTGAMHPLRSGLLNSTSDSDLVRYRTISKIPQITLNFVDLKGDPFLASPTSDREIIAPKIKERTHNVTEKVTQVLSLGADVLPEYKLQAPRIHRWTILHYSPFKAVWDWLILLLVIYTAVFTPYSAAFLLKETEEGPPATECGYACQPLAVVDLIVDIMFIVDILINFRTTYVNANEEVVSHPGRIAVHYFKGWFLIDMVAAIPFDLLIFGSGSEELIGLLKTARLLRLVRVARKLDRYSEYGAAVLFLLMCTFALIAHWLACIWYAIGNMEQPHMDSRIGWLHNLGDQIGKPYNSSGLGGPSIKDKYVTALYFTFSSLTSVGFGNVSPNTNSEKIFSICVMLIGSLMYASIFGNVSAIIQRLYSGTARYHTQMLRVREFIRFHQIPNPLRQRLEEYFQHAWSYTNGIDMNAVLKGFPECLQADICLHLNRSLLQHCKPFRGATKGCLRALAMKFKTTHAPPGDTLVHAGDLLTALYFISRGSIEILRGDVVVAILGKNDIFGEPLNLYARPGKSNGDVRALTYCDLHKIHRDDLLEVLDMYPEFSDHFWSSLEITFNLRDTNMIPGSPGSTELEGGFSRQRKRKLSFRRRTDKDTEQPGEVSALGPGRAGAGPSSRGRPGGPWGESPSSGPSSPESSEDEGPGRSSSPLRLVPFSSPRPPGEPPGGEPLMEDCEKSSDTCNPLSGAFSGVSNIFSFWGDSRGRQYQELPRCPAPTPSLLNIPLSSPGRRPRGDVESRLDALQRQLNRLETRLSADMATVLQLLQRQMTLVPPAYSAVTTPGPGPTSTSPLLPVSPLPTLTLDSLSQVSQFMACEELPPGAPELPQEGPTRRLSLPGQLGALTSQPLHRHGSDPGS
Chain of Proto-oncogene tyrosine-protein kinase Src (P12931 2-536 limits assumed): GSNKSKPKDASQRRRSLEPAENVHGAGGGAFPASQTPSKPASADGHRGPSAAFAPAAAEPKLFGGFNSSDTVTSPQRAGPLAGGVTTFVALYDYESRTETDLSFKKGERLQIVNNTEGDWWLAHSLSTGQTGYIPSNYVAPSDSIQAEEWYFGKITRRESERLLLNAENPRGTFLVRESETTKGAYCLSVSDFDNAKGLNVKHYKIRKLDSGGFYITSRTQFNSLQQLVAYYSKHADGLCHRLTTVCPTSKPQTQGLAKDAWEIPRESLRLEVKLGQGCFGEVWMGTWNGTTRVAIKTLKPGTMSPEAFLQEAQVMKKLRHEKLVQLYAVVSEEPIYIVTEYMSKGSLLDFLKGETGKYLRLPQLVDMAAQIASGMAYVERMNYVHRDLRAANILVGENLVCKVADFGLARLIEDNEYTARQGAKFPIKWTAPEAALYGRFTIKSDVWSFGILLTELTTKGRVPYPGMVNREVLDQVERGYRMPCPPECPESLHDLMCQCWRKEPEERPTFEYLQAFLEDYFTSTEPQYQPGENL

**Q.** Which half-life at 10 µM [1] does the source give for Nc1ncnc2c1c(Oc1cc(C(F)(F)F)ccn1)nn2[C@H]1C[C@@H](O)C1 here?
**A.** > 2.42 h

**Q.** And the t1/2 [2]?
**A.** 0.8 h

**Q.** What about the IC50 [3] of the same molecule?
**A.** 39 nM

**Q.** What about the EC50 (Toxoplasma gondii [4]) of the same molecule?
**A.** 281 nM

**Q.** With Nc1ncnc2c1c(Oc1cccc(C(F)(F)F)c1)nn2[C@H]1C[C@H](O)C1 as the molecule, how does the t1/2 [1] read?
**A.** 1.25 h

**Q.** What about the t1/2 [2] of the same molecule?
**A.** 0.367 h

**Q.** And the IC50 [3]?
**A.** 48 nM

**Q.** What about the EC50 (Toxoplasma gondii [4]) of the same molecule?
**A.** 482 nM

**Q.** For Nc1ncnc2c1c(Oc1cc(C(F)(F)F)ccn1)nn2[C@H]1CC[C@@H](CO)CC1, which t1/2 [1] is on record?
**A.** 1.6 h

**Q.** What about the t1/2 [2] of the same molecule?
**A.** 0.108 h

**Q.** And the IC50 [3]?
**A.** 15 nM

**Q.** What about the EC50 (Toxoplasma gondii [4]) of the same molecule?
**A.** 70 nM

**Q.** What does the source list for CO[C@@]12[C@H](COC(N)=O)C3=C(C(=O)C(C)=C(N)C3=O)N1C[C@@H]1N[C@@H]12 [MITOMYCIN]?
**A.** viability at 72 h, 20 µM [5]: 5%; viability at 72 h [6]: 25.8%; viability at 72 h, 20 µM [7]: 0%

**Q.** With Nc1ncnc2c1c(Oc1cc(Cl)ccn1)nn2CC1CC1 as the molecule, how does the t1/2 [1] read?
**A.** 0.783 h

**Q.** And the t1/2 [2]?
**A.** 0.067 h

**Q.** And the IC50 [3]?
**A.** 9 nM

**Q.** And the EC50 (Toxoplasma gondii [4])?
**A.** 71 nM

**Q.** Which results are given for Nc1ncnc2c1c(Oc1cc(C(F)(F)F)ccn1)nn2[C@@H]1CCCC[C@H]1O?
**A.** IC50 [8]: > 20000 nM; EC50 (Toxoplasma gondii [9]): 227 nM; Cmax [10]: 620 ng/mL; half-life at 10 µM [1]: > 2.42 h; IC50 [11]: > 20000 nM; CLH [12]: < 6.4 µL/min/1e6 cells; Drug metabolism (Aldehyde oxidase): < 3.2 µL/min/mg; t1/2 [2]: 1.1 h; AUC [13]: 1100 ng·h/mL; viability at 72 h, 20 µM [14]: 100%; Fu [15]: 24.3%; fraction unbound [16]: 0.041; Kp at 8 h [17]: 0.47; viability at 72 h, 20 µM [5]: 126%; Kinetic_solubility [18]: 92.73 µM; efflux ratio at […], 2 µM (MDR1): 1.23; bioavailability [19]: 48.9%; viability at 72 h [6]: 107%; Papp [20]: 21.43 ×10⁻⁶ cm/s; IC50 [21]: > 30000 nM; selectivity ratio [22]: > 1000; viability at 72 h, 20 µM [7]: 105%; t1/2 [23]: 2.17 h; viability at 72 h, 20 µM [24]: 99%; IC50 [3]: 6.6 nM; CLint scaled at 10 µM [25]: < 8.6 mL/min/kg; viability at 72 h, 20 µM [26]: 77.3%; EC50 (Toxoplasma gondii [4]): 77 to 77.5 nM; EC50 (Toxoplasma gondii [27]): 89.6 nM; inhibition at 10 µM (LCK): 45%

**Q.** Which results are given for Nc1ncnc2c1c(Oc1cc(C(F)(F)F)ccn1)nn2[C@@H]1CC[C@H](N)C1?
**A.** half-life at 10 µM [1]: > 2.42 h; t1/2 [2]: 1.4 h; IC50 [3]: 42 nM; EC50 (Toxoplasma gondii [4]): 134 nM

**Q.** For CC(C)(C)n1nc(Oc2cc(O)ccn2)c2c(N)ncnc21, which t1/2 [1] is on record?
**A.** 1.4 h

**Q.** What about the t1/2 [2] of the same molecule?
**A.** 0.617 h

**Q.** And the IC50 [3]?
**A.** 14 nM

**Q.** And the EC50 (Toxoplasma gondii [4])?
**A.** 17 nM

**Q.** What does the source list for Nc1ncnc2c1c(Oc1cc(Cl)ccn1)nn2[C@H]1C[C@H](O)C1?
**A.** half-life at 10 µM [1]: > 2.42 h; t1/2 [2]: 0.667 h; IC50 [3]: 15 nM; EC50 (Toxoplasma gondii [4]): 114 nM

**Q.** Which half-life at 10 µM [1] does the source give for CO[C@H]1CC[C@H](n2nc(Oc3cc(C(F)(F)F)ccn3)c3c(N)ncnc32)CC1 here?
**A.** > 2.42 h

**Q.** And the t1/2 [2]?
**A.** 0.217 h

**Q.** What about the IC50 [3] of the same molecule?
**A.** 38 nM

**Q.** And the EC50 (Toxoplasma gondii [4])?
**A.** 62 nM

**Q.** With CN(C)C1CCC(n2nc(Oc3cc(C(F)(F)F)ccn3)c3c(N)ncnc32)CC1 (centres undefined) as the molecule, how does the half-life at 10 µM [1] read?
**A.** > 2.42 h

**Q.** What about the t1/2 [2] of the same molecule?
**A.** 0.283 h

**Q.** What about the IC50 [3] of the same molecule?
**A.** 28 nM

**Q.** What about the EC50 (Toxoplasma gondii [4]) of the same molecule?
**A.** 40 nM
